According to ChEMBL document CHEMBL1212738, “Phenotypic and genotypic characterization of Enterobacteriaceae with decreased susceptibility to carbapenems: results from large hospital-based surveillance studies in China” (2010):
≈ marks a conversion by molar mass, not a printed value.

Legend:
[1] = system: Enterobacter cloacae; experiment: Antimicrobial activity against carbapenem-resistant Enterobacter cloacae SZ92 deficient in IMP-4, TEM-1, CTX-M-14, DHA-1, qnrB10/B4-like, aac(6')-Ib, ompC by CLSI method; type: functional
[2] = system: Klebsiella pneumoniae; experiment: Antimicrobial activity against Klebsiella pneumoniae GZ64T expressing IMP-4 by CLSI method; type: functional
[3] = system: Klebsiella pneumoniae; experiment: Antimicrobial activity against Klebsiella pneumoniae GZ64 expressing IMP-4, ompK35/36 by CLSI method; type: functional
[4] = system: Klebsiella pneumoniae; experiment: Antimicrobial activity against Klebsiella pneumoniae CY1T expressing SHV-11, DHA-1 by CLSI method; type: functional
[5] = system: Citrobacter freundii; experiment: Antimicrobial activity against Citrobacter freundii SZ63 expressing IMP-4, qnrS1by CLSI method; type: functional
[6] = system: Klebsiella pneumoniae; experiment: Antimicrobial activity against Klebsiella pneumoniae WH97 expressing SHV-33, aac(6')-Ib, ompK35 DE by CLSI method; type: functional
[7] = system: Klebsiella pneumoniae; experiment: Antimicrobial activity against carbapenem-resistant Klebsiella pneumoniae PU3 deficient in DHA-1, aac(6')-Ib-cr, ompK35/36 by CLSI method; type: functional
[8] = system: Escherichia coli; experiment: Antimicrobial activity against carbapenem-resistant Escherichia coli PU60 deficient in TEM-1, CMY-2, ompC/F by CLSI method; type: functional
[9] = system: Escherichia coli; experiment: Antimicrobial activity against Escherichia coli HX74T expressing CTX-M-3 by CLSI method; type: functional
[10] = system: Klebsiella pneumoniae; experiment: Antimicrobial activity against carbapenem-resistant Klebsiella pneumoniae FZ49 deficient in IMP-8, TEM-1, SHV-11, CTX-M-14, qnrB2, aac(6')-Ib, ompK35/36 by CLSI method; type: functional
[11] = system: Klebsiella pneumoniae; experiment: Antimicrobial activity against Klebsiella pneumoniae ZJ71T expressing KPC-2 by CLSI method; type: functional
[12] = system: Klebsiella pneumoniae; experiment: Antimicrobial activity against carbapenem-resistant Klebsiella pneumoniae PU105 deficient TEM-1, SHV-12, CTX-M-14, DHA-1, qnrB10/B4-like, aac(6')-Ib-cr, ompK35/36 by CLSI method; type: functional
[13] = system: Escherichia coli; experiment: Antimicrobial activity against Escherichia coli C600 transconjugant WH76T expressing IMP-4, TEM-1, CTX-M-3, qnrS1 by CLSI method
[14] = system: Klebsiella pneumoniae; experiment: Antimicrobial activity against Klebsiella pneumoniae FZ47T expressing IMP-8, TEM-1, CTX-M-14, qnrB2, aac(6')-Ib by CLSI method; type: functional
[15] = system: Escherichia coli; experiment: Antimicrobial activity against Escherichia coli ZJ87T expressing KPC-2 by CLSI method; type: functional
[16] = system: Klebsiella pneumoniae; experiment: Antimicrobial activity against carbapenem-resistant Klebsiella pneumoniae ZJ71 deficient in KPC-2, TEM-1, SHV-11, CTX-M-14, ompK35 by CLSI method; type: functional
[17] = system: Escherichia coli; experiment: Antimicrobial activity against carbapenem-resistant Escherichia coli PU101 deficient in TEM-1, CTX-M-14, CMY-2, ompC by CLSI method; type: functional
[18] = system: Escherichia coli; experiment: Antimicrobial activity against carbapenem-resistant Escherichia coli PU96 deficient in TEM-1, CTX-M-14, CMY-2, ompC/F by CLSI method; type: functional
[19] = system: Escherichia coli; experiment: Antimicrobial activity against Escherichia coli C600 transconjugant XJ81T expressing TEM-1, SHV-12, aac(6')-Ib by CLSI method
[20] = system: Citrobacter freundii; experiment: Antimicrobial activity against Citrobacter freundii SZ62 expressing IMP-4, TEM-1, CMY-2, qnrS1, aac(6')-Ib-cr by CLSI method; type: functional
[21] = system: Escherichia coli; experiment: Antimicrobial activity against Escherichia coli C600 transconjugant SZ62T expressing IMP-4, qnrS1by CLSI method
[22] = system: Klebsiella pneumoniae; experiment: Antimicrobial activity against Klebsiella pneumoniae ZJ99T expressing KPC-2, CTX-M-3, qnrS1 by CLSI method; type: functional
[23] = system: Enterobacter cloacae; experiment: Antimicrobial activity against carbapenem-resistant Enterobacter cloacae GX56 deficient in ompC and expressing low levels of ompF DE by CLSI method; type: functional
[24] = system: Escherichia coli; experiment: Antimicrobial activity against carbapenem-resistant Escherichia coli PU102 deficient in TEM-1, CTX-M-14, CMY-2, aac(6')-Ib, ompC DEc, ompF by CLSI method; type: functional
[25] = system: Klebsiella pneumoniae; experiment: Antimicrobial activity against carbapenem-resistant Klebsiella pneumoniae CY1 deficient in SHV-11, DHA-1, ompK35/36 by CLSI method; type: functional
[26] = system: Klebsiella pneumoniae; experiment: Antimicrobial activity against carbapenem-resistant Klebsiella pneumoniae GZ84 deficient in SHV-11, aac(6')-Ib-cr, ompK35 by CLSI method; type: functional
[27] = system: Enterobacter cloacae; experiment: Antimicrobial activity against carbapenem-resistant Enterobacter cloacae RJ94 deficient in IMP-4, TEM-1, CTX-M-3, ompC by CLSI method; type: functional
[28] = system: Klebsiella pneumoniae; experiment: Antimicrobial activity against carbapenem-resistant Klebsiella pneumoniae ZJ70 deficient in KPC-2, SHV-11, CTX-M-14, ompK35/36 by CLSI method; type: functional
[29] = system: Klebsiella pneumoniae; experiment: Antimicrobial activity against carbapenem-resistant Klebsiella pneumoniae FZ47 deficient in IMP-8, TEM-1, SHV-11, CTX-M-14, qnrB2, aac(6')-Ib, ompK35/36 by CLSI method; type: functional
[30] = system: Enterobacter cloacae; experiment: Antimicrobial activity against carbapenem-resistant Enterobacter cloacae SZ93 deficient in ompC by CLSI method; type: functional
[31] = system: Klebsiella pneumoniae; experiment: Antimicrobial activity against carbapenem-resistant Klebsiella pneumoniae SX67 deficient in SHV-2, CTX-M-14, DHA-1, qnrB6/S1, aac(6')-Ib-cr, ompK35/36 by CLSI method; type: functional
[32] = system: Enterobacter cloacae; experiment: Antimicrobial activity against carbapenem-resistant Enterobacter cloacae NJ89 deficient in CTX-M-14, ompC/F by CLSI method; type: functional
[33] = system: Escherichia coli; experiment: Antimicrobial activity against Escherichia coli PU60T expressing CMY-2 by CLSI method; type: functional
[34] = system: Klebsiella pneumoniae; experiment: Antimicrobial activity against carbapenem-resistant Klebsiella pneumoniae PU104 deficient in TEM-1, SHV-11, CTX-M-15, qnrS1, ompK35/36 by CLSI method; type: functional
[35] = system: Klebsiella pneumoniae; experiment: Antimicrobial activity against Klebsiella pneumoniae ZJ99 expressing KPC-2, CTX-M-3, qnrS1, ompK35 DE by CLSI method; type: functional
[36] = system: Klebsiella pneumoniae; experiment: Antimicrobial activity against Klebsiella pneumoniae ZJ68T expressing CTX-M-15 by CLSI method; type: functional
[37] = system: Klebsiella pneumoniae; experiment: Antimicrobial activity against carbapenem-resistant Klebsiella pneumoniae PU4 deficient in SHV-1, DHA-1, ompK35/36 by CLSI method; type: functional
[38] = system: Enterobacter cloacae; experiment: Antimicrobial activity against carbapenem-resistant Enterobacter cloacae NJ88 deficient in CTX-M-14, ompC/F by CLSI method; type: functional
[39] = system: Klebsiella pneumoniae; experiment: Antimicrobial activity against Klebsiella pneumoniae WH76 expressing IMP-4, TEM-1, SHV-14, CTX-M-3, qnrS1 by CLSI method; type: functional
[40] = system: Escherichia coli; experiment: Antimicrobial activity against Escherichia coli PU101T expressing CMY-2 by CLSI method; type: functional
[41] = system: Enterobacter cloacae; experiment: Antimicrobial activity against carbapenem-resistant Enterobacter cloacae NJ90 deficient in CTX-M-14, ompC/F by CLSI method; type: functional

CN(C)c1cc(NC(=O)CNC(C)(C)C)c(O)c2c1C[C@H]1C[C@H]3[C@H](N(C)C)C(O)=C(C(N)=O)C(=O)[C@@]3(O)C(O)=C1C2=O [TIGECYCLINE]
MIC [1]: 1 µg/mL (≈ 1.71 µM)
MIC [2]: 0.06 µg/mL (≈ 0.102 µM)
MIC [3]: 0.5 µg/mL (≈ 0.854 µM)
MIC [4]: 1 µg/mL (≈ 1.71 µM)
MIC [5]: 1 µg/mL (≈ 1.71 µM)
MIC [6]: 0.5 µg/mL (≈ 0.854 µM)
MIC [7]: 0.25 µg/mL (≈ 0.427 µM)
MIC [8]: 0.125 µg/mL (≈ 0.213 µM)
MIC [9]: 0.125 µg/mL (≈ 0.213 µM)
MIC [10]: 0.5 µg/mL (≈ 0.854 µM)
MIC [11]: 0.13 µg/mL (≈ 0.222 µM)
MIC [12]: 2 µg/mL (≈ 3.41 µM)
MIC [13]: 0.06 µg/mL (≈ 0.102 µM)
MIC [14]: 0.06 µg/mL (≈ 0.102 µM)
MIC [15]: 0.25 µg/mL (≈ 0.427 µM)
MIC [16]: 0.13 µg/mL (≈ 0.222 µM)
MIC [17]: 0.064 µg/mL (≈ 0.109 µM)
MIC [18]: 1 µg/mL (≈ 1.71 µM)
MIC [19]: 0.064 µg/mL (≈ 0.109 µM)
MIC [20]: 1 µg/mL (≈ 1.71 µM)
MIC [21]: 0.13 µg/mL (≈ 0.222 µM)
MIC [22]: 0.25 µg/mL (≈ 0.427 µM)
MIC [23]: 4 µg/mL (≈ 6.83 µM)
MIC [24]: 0.25 µg/mL (≈ 0.427 µM)
MIC [25]: 16 µg/mL (≈ 27.3 µM)
MIC [26]: 0.5 µg/mL (≈ 0.854 µM)
MIC [27]: 1 µg/mL (≈ 1.71 µM)
MIC [28]: 0.25 µg/mL (≈ 0.427 µM)
MIC [29]: 1 µg/mL (≈ 1.71 µM)
MIC [30]: 1 µg/mL (≈ 1.71 µM)
MIC [31]: 0.5 µg/mL (≈ 0.854 µM)
MIC [32]: 0.5 µg/mL (≈ 0.854 µM)
MIC [33]: 0.125 µg/mL (≈ 0.213 µM)
MIC [34]: 0.5 µg/mL (≈ 0.854 µM)
MIC [35]: 1 µg/mL (≈ 1.71 µM)
MIC [36]: 0.064 µg/mL (≈ 0.109 µM)
MIC [37]: 4 µg/mL (≈ 6.83 µM)
MIC [38]: 0.5 µg/mL (≈ 0.854 µM)
MIC [39]: 0.5 µg/mL (≈ 0.854 µM)
MIC [40]: 0.25 µg/mL (≈ 0.427 µM)
MIC [41]: 0.5 µg/mL (≈ 0.854 µM)

CO[C@@]1(NC(=O)Cc2cccs2)C(=O)N2C(C(=O)O)=C(COC(N)=O)CS[C@@H]21 [CEFOXITIN]
MIC [1]: > 256 µg/mL
MIC [2]: 256 µg/mL (≈ 599 µM)
MIC [3]: > 256 µg/mL
MIC [4]: 64 µg/mL (≈ 150 µM)
MIC [5]: > 256 µg/mL
MIC [6]: > 256 µg/mL
MIC [7]: > 256 µg/mL
MIC [8]: > 256 µg/mL
MIC [9]: 16 µg/mL (≈ 37.4 µM)
MIC [10]: > 256 µg/mL
MIC [11]: 32 µg/mL (≈ 74.9 µM)
MIC [12]: > 256 µg/mL
MIC [13]: > 256 µg/mL
MIC [14]: > 256 µg/mL
MIC [15]: 64 µg/mL (≈ 150 µM)
MIC [16]: 16 µg/mL (≈ 37.4 µM)
MIC [17]: > 256 µg/mL
MIC [18]: > 256 µg/mL
MIC [19]: 16 µg/mL (≈ 37.4 µM)
MIC [20]: > 256 µg/mL
MIC [21]: > 256 µg/mL
MIC [22]: 32 µg/mL (≈ 74.9 µM)
MIC [23]: > 256 µg/mL
MIC [24]: > 256 µg/mL
MIC [25]: > 256 µg/mL
MIC [26]: > 256 µg/mL
MIC [27]: > 256 µg/mL
MIC [28]: 128 µg/mL (≈ 299 µM)
MIC [29]: > 256 µg/mL
MIC [30]: > 256 µg/mL
MIC [31]: > 256 µg/mL
MIC [32]: > 256 µg/mL
MIC [33]: 128 µg/mL (≈ 299 µM)
MIC [34]: 256 µg/mL (≈ 599 µM)
MIC [35]: 32 µg/mL (≈ 74.9 µM)
MIC [36]: 16 µg/mL (≈ 37.4 µM)
MIC [37]: > 256 µg/mL
MIC [38]: > 256 µg/mL
MIC [39]: > 256 µg/mL
MIC [40]: > 256 µg/mL
MIC [41]: > 256 µg/mL
